The values below come from patent US10494602B1, “Functional astrocytes and cortical neurons from induced pluripotent stem cells and methods of use thereof” (The Board of Trustees of the Leland Stanford Junior …, priority 2015, dated 2019).

What is called EC50 is the concentration giving half of the maximal effect.

Entries after “also recorded” stand apart in the source; their conditions may differ.

Assay [1] deals with element-binding protein (CBP) (Homo sapiens, UniProt Q92793). To be noted: cited from earlier work.
element-binding protein (CBP), sequence (Q92793 whole entry): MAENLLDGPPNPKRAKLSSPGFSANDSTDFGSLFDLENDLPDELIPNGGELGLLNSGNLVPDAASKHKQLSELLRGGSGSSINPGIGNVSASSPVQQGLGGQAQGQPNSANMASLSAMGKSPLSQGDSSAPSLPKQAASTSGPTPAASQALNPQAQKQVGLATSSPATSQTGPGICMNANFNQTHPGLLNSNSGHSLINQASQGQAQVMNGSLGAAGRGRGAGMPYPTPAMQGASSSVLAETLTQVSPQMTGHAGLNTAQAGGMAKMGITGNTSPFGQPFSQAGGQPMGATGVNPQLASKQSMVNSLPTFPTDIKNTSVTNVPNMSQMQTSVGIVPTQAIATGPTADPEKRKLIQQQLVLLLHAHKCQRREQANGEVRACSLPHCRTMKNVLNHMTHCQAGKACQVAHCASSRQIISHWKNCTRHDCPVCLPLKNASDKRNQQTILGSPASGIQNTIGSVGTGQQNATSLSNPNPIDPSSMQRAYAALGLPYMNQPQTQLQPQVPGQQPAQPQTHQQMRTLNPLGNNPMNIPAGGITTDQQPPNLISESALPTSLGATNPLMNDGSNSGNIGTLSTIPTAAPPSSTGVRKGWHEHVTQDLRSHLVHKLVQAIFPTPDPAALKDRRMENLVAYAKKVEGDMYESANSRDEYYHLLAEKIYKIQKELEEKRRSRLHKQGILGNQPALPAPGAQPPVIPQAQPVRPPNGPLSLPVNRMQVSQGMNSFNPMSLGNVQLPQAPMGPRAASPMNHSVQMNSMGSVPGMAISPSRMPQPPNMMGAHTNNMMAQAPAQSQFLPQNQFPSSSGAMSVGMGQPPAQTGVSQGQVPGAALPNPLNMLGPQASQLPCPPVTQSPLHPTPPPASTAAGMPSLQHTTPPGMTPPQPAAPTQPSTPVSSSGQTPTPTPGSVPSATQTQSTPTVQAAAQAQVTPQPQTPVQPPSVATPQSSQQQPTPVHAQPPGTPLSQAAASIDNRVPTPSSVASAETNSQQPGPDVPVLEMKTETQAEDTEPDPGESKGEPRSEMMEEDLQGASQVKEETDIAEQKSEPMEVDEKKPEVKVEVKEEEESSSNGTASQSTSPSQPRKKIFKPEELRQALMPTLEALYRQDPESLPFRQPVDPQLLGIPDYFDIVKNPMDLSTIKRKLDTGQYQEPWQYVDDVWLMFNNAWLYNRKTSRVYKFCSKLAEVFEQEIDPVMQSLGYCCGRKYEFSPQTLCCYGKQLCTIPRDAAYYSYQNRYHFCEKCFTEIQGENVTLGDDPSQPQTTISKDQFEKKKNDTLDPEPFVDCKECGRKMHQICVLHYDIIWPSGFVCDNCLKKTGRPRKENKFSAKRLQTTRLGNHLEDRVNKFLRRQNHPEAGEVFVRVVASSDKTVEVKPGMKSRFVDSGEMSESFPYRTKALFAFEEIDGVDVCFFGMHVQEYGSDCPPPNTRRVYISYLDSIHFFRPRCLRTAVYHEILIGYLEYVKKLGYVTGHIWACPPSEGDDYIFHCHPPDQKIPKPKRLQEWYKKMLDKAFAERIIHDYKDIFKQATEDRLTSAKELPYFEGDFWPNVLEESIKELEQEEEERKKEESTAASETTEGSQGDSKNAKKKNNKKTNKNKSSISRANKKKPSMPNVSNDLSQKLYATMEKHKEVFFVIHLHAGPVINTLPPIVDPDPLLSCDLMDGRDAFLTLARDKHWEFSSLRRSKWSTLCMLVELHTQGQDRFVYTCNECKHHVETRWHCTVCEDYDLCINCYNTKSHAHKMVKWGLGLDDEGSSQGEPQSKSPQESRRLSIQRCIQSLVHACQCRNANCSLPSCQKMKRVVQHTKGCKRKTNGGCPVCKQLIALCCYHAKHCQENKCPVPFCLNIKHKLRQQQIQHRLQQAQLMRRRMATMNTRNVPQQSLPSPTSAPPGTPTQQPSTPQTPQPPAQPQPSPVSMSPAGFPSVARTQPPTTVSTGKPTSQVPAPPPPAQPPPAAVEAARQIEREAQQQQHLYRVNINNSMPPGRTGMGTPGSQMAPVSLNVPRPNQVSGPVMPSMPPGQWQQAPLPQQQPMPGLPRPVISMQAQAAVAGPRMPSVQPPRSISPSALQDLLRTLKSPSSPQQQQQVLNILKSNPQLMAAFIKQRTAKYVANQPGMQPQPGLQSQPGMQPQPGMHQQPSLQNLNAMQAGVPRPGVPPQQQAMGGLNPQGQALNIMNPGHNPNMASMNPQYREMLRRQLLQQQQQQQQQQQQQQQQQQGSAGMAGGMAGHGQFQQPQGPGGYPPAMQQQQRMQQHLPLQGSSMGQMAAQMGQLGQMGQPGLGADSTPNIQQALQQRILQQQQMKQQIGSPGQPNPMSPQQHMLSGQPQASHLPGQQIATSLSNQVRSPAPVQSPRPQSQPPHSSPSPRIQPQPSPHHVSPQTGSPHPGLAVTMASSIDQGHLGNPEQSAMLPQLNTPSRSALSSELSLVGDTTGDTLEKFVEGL
Assay [2] relates to Wnt processing and secretion. To be noted: cell-free assay; read-out: 1050, inhibition of Wnt processing and secretion; cited from earlier work.
The subject of assay [3] is Wnt-stimulated cellular responses. To be noted: cited from earlier work.
Assay [4] concerns PORCN. To be noted: read-out: EC50, Porcn inhibition; cited from earlier work.
For the next assay, the system named is Wnt signaling. To be noted: TM3 cells; read-out: IC50, inhibition of Wnt signaling; cited from earlier work.
The test system of the next assay is BMP signaling. To be noted: cited from earlier work.
The test system of assay [5] is voltage-gated Na+ channels. Type of assay: cell-based, human.
The next assay deals with T1, TNKS2 (Homo sapiens, UniProt Q9H2K2).
T1 sequence (Q9H2K2 1-1166): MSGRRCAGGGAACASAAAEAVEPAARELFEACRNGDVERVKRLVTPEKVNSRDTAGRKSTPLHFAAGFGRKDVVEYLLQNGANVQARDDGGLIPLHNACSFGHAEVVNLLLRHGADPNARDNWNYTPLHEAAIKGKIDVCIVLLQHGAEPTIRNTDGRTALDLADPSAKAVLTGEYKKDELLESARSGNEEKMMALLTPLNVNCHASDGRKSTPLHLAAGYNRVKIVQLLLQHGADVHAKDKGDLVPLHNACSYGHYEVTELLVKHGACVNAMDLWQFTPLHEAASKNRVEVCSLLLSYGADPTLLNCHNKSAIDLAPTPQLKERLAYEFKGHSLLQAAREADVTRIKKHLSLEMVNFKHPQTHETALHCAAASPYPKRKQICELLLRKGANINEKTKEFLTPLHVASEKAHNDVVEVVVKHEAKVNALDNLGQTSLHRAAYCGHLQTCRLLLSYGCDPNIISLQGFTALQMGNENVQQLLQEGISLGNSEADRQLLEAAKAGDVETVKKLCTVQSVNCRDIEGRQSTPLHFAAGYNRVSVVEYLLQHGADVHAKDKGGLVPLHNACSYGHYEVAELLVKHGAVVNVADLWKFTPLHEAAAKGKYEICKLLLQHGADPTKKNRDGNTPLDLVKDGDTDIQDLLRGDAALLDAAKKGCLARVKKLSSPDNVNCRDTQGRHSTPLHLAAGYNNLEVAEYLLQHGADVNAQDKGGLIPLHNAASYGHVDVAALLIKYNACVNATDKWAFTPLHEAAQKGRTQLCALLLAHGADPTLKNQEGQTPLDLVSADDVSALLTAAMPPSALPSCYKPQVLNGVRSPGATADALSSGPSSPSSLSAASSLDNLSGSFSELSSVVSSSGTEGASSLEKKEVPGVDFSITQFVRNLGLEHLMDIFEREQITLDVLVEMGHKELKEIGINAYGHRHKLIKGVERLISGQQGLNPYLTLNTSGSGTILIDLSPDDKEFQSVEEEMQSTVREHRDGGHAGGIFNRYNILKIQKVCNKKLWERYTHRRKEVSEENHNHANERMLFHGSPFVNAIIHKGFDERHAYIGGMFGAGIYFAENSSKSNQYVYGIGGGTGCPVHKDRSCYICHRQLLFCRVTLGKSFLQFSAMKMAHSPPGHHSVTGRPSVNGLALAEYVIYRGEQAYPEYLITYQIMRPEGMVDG
Particulars: cited from earlier work.

Assay [6] concerns spontaneous synaptic activity (EPSCs) of neurons in hCS slices. Description: Spontaneous EPSCs in acute hCS slice preparation (whole cell recording). Type of assay: cell-based, human. Particulars: kynurenic acid 1 mM bath application; n=6 cells, P=0.0008. The procedure:
hCS were removed from Neurobasal-B27 media, quickly fixed to a block of 4% agarose, and covered in ice-cold oxygenated (95% 02 and 5% CO2) ACSF containing 126 mM NaCl, 2.5 mM KCl, 1.25 mM NaH2PO4, 2 mM MgCl2, 2 mM CaCl2), 26 mM NaHCO3and 10 mM glucose. 250 μm thick slices were cut using a Leica VT1200 vibrating microtome. After slicing, sections were moved to continuously oxygenated warm (˜32° C.) ACSF. Slices were incubated in warm ACSF for at least one hour prior to recording.
Whole cell patch clamp recordings were made at 22-25° C. Slices were superfused at a rate of 3 ml/min. Patch-clamp recordings were made using a MultiClamp 700A amplifier with Clampex 10.3 software. 3-5 MO borosilicate glass recording electrodes were filled with internal solution containing 120 mM potassium gluconate, 11 mM KCl, 1 mM MgCl2, 1 mM CaCl2, 10 mM HEPES, 1 mM EGTA, pH adjusted to 7.4 with KOH (290 mOsm). To determine if EPSCs recorded in voltage clamp are glutamate dependent, the glutamate receptor blocker kynurenic acid (1 mM) was added to the bath solution following at minimum 5 min of baseline recording. Evoked responses were produced by extracellular monopolar tungsten electrode placed 100-300 μm from the whole cell recording. […]

The test system of assay [7] is PORCN. Particulars: HEK293 cells; read-out: IC50, Wnt3A-mediated activation of a multimerized TCF-binding site driving luciferase; cited from earlier work.

Consider `O=C1[C@H](Cc2ccc(O)cc2)N2C(=O)CCN(C(=O)NCc3ccccc3)[C@H]2CN1Cc1cccc2ccccc12` [ICG-001], for which the IC50 in [1] is 3000 nM.
As for `Cc1ccc2nc(NC(=O)CSc3nc4c(c(=O)n3-c3ccccc3)SCC4)sc2c1` [IWP-2], the IC50 in assay [2] was 27 nM. Moreover, the “effect against Wnt-stimulated cellular responses” value in assay [3] is listed as “no effect”.
Take `O=C(CSc1nc2c(c(=O)n1-c1ccccc1)SCC2)Nc1ccc(-c2ccccc2)cn1` [IWP-L6]: the EC50 with PORCN [4] is 0.5 nM.
Regarding `Cc1cc(-c2ncc(CC(=O)Nc3ccc(-c4cnccn4)cn3)cc2C)ccn1` [LGK-974], the IC50 in the assay with Wnt signaling was 0.4 nM.
For `NC(=O)c1ccc(-c2nc(-c3ccc4c(c3)OCO4)c(-c3ccccn3)[nH]2)cc1` [SB-431542], the “effect on BMP signaling” value in the assay on BMP signaling is “no effect”.
As for `NC1=N[C@H](O)[C@H]2[C@H]3O[C@]4(O)O[C@@H]([C@@H](O)[C@@]2(N1)[C@@H]4O)[C@]3(O)CO` [TTX, tetrodotoxin], the “block of transient inward voltage-gated Na+ current” value in assay [5] was “blocks”.
As for `COc1ccc(-n2c(SCCCN3C(=O)c4cccc5cccc(c45)C3=O)nnc2-c2ccncc2)cc1` [WIKI4], the IC50 on TNKS2 was 15 nM.
For `O=C(O)c1cc(=O)c2ccccc2[nH]1` [kynurenic acid], in assay [6], the “spontaneous synaptic activity (EPSCs) in sliced hCS” value is “significantly reduced; also recorded: blocked”.
For the compound Wnt-059 (C59), the IC50 in the assay on PORCN [7] is 0.074 nM.
